Assay results: PMC6165478, “Wine and Olive Oil Phenolic Compounds Interaction in Humans” (Diseases, 2018)
Where “and” joins values, the source holds several entries; their conditions need not be identical. Equal values may be shown once. Marks after values point to notes of the source that are not given here.

How the values were obtained:
[1] = Urinary recovery of RESV, its isomers and dihydro-RESV (GC-MS after enzymatic hydrolysis), crossover clinical trial; conditions: for RESV urinary recovery from 0 to 6 h: urine 0-6 h, n = 12, mean ± SD
Experimental: The study consisted of a crossover randomized clinical trial with three different interventions. The interventions consisted of a single administration of 25 mL of EVOO, 150 mL of RW, or the combination of both 25 mL of EVOO and 150 mL of RW. Treatment quantities were equivalent to normal dietary doses of a typical MD. A total of twelve healthy subjects (50% women, 34.0 ± 10.5, BMI = 22.0 ± 3.3 kg/m^2) participated in the study. The study was explained to participants through verbal and written instructions, and written informed consent was obtained before participation. Volunteers received each treatment in a randomized manner. The study included three experimental sessions in which each intervention was administered under fasting conditions. Each experimental session was preceded by a two-day washout period. The total duration of the study was nine days.
On the day of the intervention, subjects consumed one of the three interventions within a period of 5–10 min. Urine was collected in separate fractions, at baseline (−2–0 h), to assess dietary compliance and during 6 h after each dietary intervention (0–6 h). The amount of urine in each fraction was measured, acidified with 6 M HCl, and stored at −20 °C until analysis. The study protocol was approved by the Ethics Committee of Parc de Salut Mar (CEIC-PSMAR) (Spain), and the clinical trial was registered at the International Standard Randomized Controlled Trial Number (NCT03614520).
Urine was subjected to a hydrolysis procedure previously described by our working group. Aliquots of 1 mL of diluted urine (1:10 in water) were spiked with 10 µL of IS (containing 10 µg/mL of diethylstilbestrol), 100 µL of sodium metabisulfite, 1 mL acetate buffer 0.1 M pH 5.2, and 25 µL of β-glucuronidase. The samples were incubated at 37 °C overnight. After incubation, 1 mL of NaOH was added to neutralize the hydrolysis process. For the extraction of the phenolic compounds, 0.5 mL of a saturated solution of NaCl and 4 mL of acetonitrile-ethyl acetate mixture (1:4 v/v) were added. Samples were mixed for 30 min, centrifuged for 5 min at 300 g, and the organic phase was extracted and evaporated until dry. After 1 h in an oven at 50 °C, the residue was derivatized with 75 µL of MSTFA: NH4I:2-mercaptoethanol reaction mixture for 30 min at 60 °C and 2 µL was injected into the gas chromatograph.
For the preparation of the calibration curves, 1 mL of diluted urine (1:10 in water) was spiked with an increasing concentration of c- and t-RESV and dihydro-RESV (10–200 ng/mL), and subjected to the extraction procedure exactly in the same way as the samples.
The extracted samples were analyzed using an Agilent Technologies (Santa Clara, CA, USA) 6890 N gas chromatograph coupled to a 5973 mass-selective detector. For chromatographic separation, a 5% phenyl-dimethyl-polysiloxane Zebron™ (Torrance, CA, USA) fused-silica capillary column (15 m × 0.25 mm i.d., 0.25 µm film thickness) was used. The split injection mode using helium as a carrier gas (0.9 mL/min) was applied. The temperatures of the injector and transfer line were set at 280 °C. Gas chromatographic conditions were as follows: initial oven temperature at 80 °C, raised by 20 °C/min to 200 °C, then by 10 °C/min to 300 °C, and maintained at 300 °C for 3 min. […] Ions at m/z 444 (RESV and piceid), m/z 179 (dihydro-RESV), and m/z 412 (diethylstilbestrol), were selected for the quantitative analysis.

[2] = Ethyl glucuronide quantification in urine (LC-MS/MS); assay type: in vivo, humans
Experimental: (§1) Volunteers received each treatment in a randomized manner. […] The total duration of the study was nine days.
Ethyl glucuronide concentration in urine was used as a marker of alcohol abstinence and compliance with the dietary recommendations before each intervention. To determine urinary concentrations of ethyl glucuronide, aliquots of 30 μL were mixed with 10 μL of IS mix solution (containing 10 μg/mL ethyl-glucuronide-d5 and ethyl-sulfate-d5) and 110 μL of 0.1% formic acid solution in water. The identification and the quantification of ethyl glucuronide were carried out using an Agilent 1200 series HPLC system (Agilent technologies) (Santa Clara, California, CA, USA) coupled to a triple quadrupole (6410 Triple Quad LC/MS; Agilent) mass spectrometer with an electrospray interface. To perform the chromatographic separation, an Acquity UPLC® BEH C18 column with a 1.7 μm particle size, 3 mm × 100 mm (Waters, Milford, MA, USA) was used. The composition of mobile phase A was 0.1% (v/v) formic acid in water, and mobile phase B was 0.1% (v/v) formic acid in acetonitrile.

[3] = Urinary recovery of HT, TYR and their metabolites (LC-MS/MS), crossover clinical trial; assay type: in vivo; conditions: urine 0-6 h, n = 12, mean ± SD
Experimental: as §1
The quantification of urinary levels of HT and TYR free forms and their metabolites was performed using a solid-phase extraction and following the method previously described. The method was capable of detecting the free forms HT, TYR, and HVALc; the sulfate conjugates HT-sulfate, TYR-sulfate, and HT-acetate-sulfate; and the glucuronide conjugates HT-glucuronide, TYR-glucuronide, and HVALc-glucuronide. Shortly thereafter, aliquots of 0.5 mL of the samples were diluted with 0.5 mL of purified water and spiked with 10 µL of internal standard (containing 10 µg/mL of HT-D3, 3-(4-hydroxyphenyl)-1-propanol, 4-(3-hydroxypropylphenyl) glucuronide and HT-1-sulfate) and stabilized with 1 mL of phosphoric acid 4%. Thereafter, samples were submitted to a solid-phase extraction by means of Oasis HLB columns. Samples were loaded into the cartridges, and the cartridges were then washed with 2 mL of purified water. Finally, the compounds of interest were eluted by adding 2 mL of methanol to the cartridges. Subsequently, the methanol was evaporated until dry using nitrogen (29 °C, 10–15 psi). Finally, the dried extracts were reconstituted in 100 µL of a mixture of mobile phases (91% A/9% B v/v), transferred into HPLC vials, and analyzed by LC-MS/MS.
Identification and quantification of HT and TYR metabolites was performed using an Agilent 1200 series HPLC system (Agilent technologies, Santa Clara, California, CA, USA) coupled to a triple quadrupole (6410 Triple Quad LC/MS; Agilent) mass spectrometer with an electrospray interface. The chromatographic separation was carried out with an Acquity UPLC® BEH C18 column with a 1.7 μm particle size, 3 mm × 100 mm (Waters, Milford, MA, USA) maintained at 40 °C. The composition of mobile phase A was 0.01% of ammonium acetate (pH 5) in water; mobile phase B was pure methanol. The injection volume was 10 μL and the ion source operated in negative ionization mode.

[4] = baseline urine (-2 to 0 h), after washout diet

Structure (SMILES) | RESV urinary recovery from 0 to 6 h ([1]; after 25 mL EVOO + 150 mL RW) | RESV urinary recovery from 0 to 6 h ([1]; after single dose 25 mL EVOO) [nmol] | RESV urinary recovery from 0 to 6 h ([1]; after single dose 150 mL RW) | Urinary recovery from 0 to 6 h (single free form or metabolite) ([3]; after 25 mL EVOO + 150 mL RW) | Urinary recovery from 0 to 6 h (single free form or metabolite) ([3]; after single dose 25 mL EVOO) [nmol] | Urinary recovery from 0 to 6 h (single free form or metabolite) ([3]; after single dose 150 mL RW) | other results
Oc1ccc(CCc2cc(O)cc(O)c2)cc1 [Dihydro-RESV, Dihydroresveratrol] | 13.0 ± 8.3 ^aa nmol | 0.0 ± 0.0 | 10.9 ± 7.5 ^aa nmol |  |  |  | RESV urinary recovery from 0 to 6 h ([1]; after 25 mL EVOO + 150 mL RW, listed as dihydro-RESV): 13.0 ± 8.3 nmol; RESV urinary recovery from 0 to 6 h ([1]; after single dose 150 mL RW, listed as dihydro-RESV): 10.9 ± 7.5 nmol
CCO[C@@H]1O[C@H](C(=O)O)[C@@H](O)[C@H](O)[C@H]1O [Ethyl glucuronide] |  |  |  |  |  |  | Ethyl glucuronide recovery in urine ([2]; after EVOO (25 mL)): undetectable; Ethyl glucuronide recovery in urine ([2]; after RW + EVOO intervention): 19.3 ± 7.6 µmols; Ethyl glucuronide recovery in urine ([2]; after RW intervention (150 mL)): 19.0 ± 9.5 µmols; Ethyl glucuronide in urine at baseline [2, 4]: undetectable
COc1cc(CCO)ccc1O [Free HVALc, homovanillyl alcohol] |  |  |  | 247 ± 205 ^bb nmol | 269 ± 145 | 110 ± 118 ^aa nmol | 
OCCc1ccc(O)c(O)c1 [HT, 3,4-dihydroxyphenylethanol] |  |  |  | 386 ± 289 ^bb nmol | 367 ± 221 | 201 ± 173 ^aa nmol | Total urinary recovery from 0 to 6 h (sum of free form and metabolites) ([3]; after 25 mL EVOO + 150 mL RW): 6286 ± 3198 nmol; Total urinary recovery from 0 to 6 h (sum of free form and metabolites) ([3]; after 25 mL EVOO + 150 mL RW, listed as Total HT): 6286 ± 3198 ^aa bb nmol; Total urinary recovery from 0 to 6 h (sum of free form and metabolites) ([3]; after single dose 25 mL EVOO): 3788 ± 1751 nmol; Total urinary recovery from 0 to 6 h (sum of free form and metabolites) ([3]; after single dose 150 mL RW): 2308 ± 847 nmol; Total urinary recovery from 0 to 6 h (sum of free form and metabolites) ([3]; after single dose 150 mL RW, listed as Total HT): 2308 ± 847 ^a nmol
Oc1ccc(C=Cc2cc(O)cc(O)c2)cc1 [RESV, 3,4′,5-Trihydroxystilbene] |  |  |  |  |  |  | RESV in baseline urine samples [1, 4]: no RESV was observed
OCCc1ccc(O)cc1 [TYR, tyrosol] |  |  |  | 460 ± 490 ^b nmol | 404 ± 346 | 132 ± 114 ^aa nmol | Total urinary recovery from 0 to 6 h (sum of free form and metabolites) ([3]; after 25 mL EVOO + 150 mL RW): 4925 ± 1751 nmol; Total urinary recovery from 0 to 6 h (sum of free form and metabolites) ([3]; after 25 mL EVOO + 150 mL RW, listed as Total TYR): 4925 ± 3993 ^aa b nmol; Total urinary recovery from 0 to 6 h (sum of free form and metabolites) ([3]; after single dose 25 mL EVOO): 2180 ± 1917 nmol; Total urinary recovery from 0 to 6 h (sum of free form and metabolites) ([3]; after single dose 150 mL RW): 2567 ± 1468 nmol
Oc1ccc(C=Cc2cc(O)cc(O)c2)cc1 [c-RESV, 3,4′,5-Trihydroxystilbene] | 83.8 ± 62.6 ^aa nmol | 0.0 ± 0.0 | 72.8 ± 44.3 ^aa nmol |  |  |  | 
Oc1ccc(C=Cc2cc(O)cc(O)c2)cc1 [t-RESV, 3,4′,5-Trihydroxystilbene] | 61.7 ± 42.4 nmol and 61.7 ± 42.4 ^aa nmol | 0.0 ± 0.0 | 59.2 ± 28.7 nmol and 59.2 ± 28.7 ^aa nmol |  |  |  | 
